According to ChEMBL document CHEMBL4765354, “Structure guided design of potent indole-based ATX inhibitors bearing hydrazone moiety with tumor suppression effects” (Eur J Med Chem, 2020):

Columns and labels:
[1] = tested on: A549; test: Antiproliferative activity against human A549 cells measured after 72 hrs by MTT assay; type: functional, cell-based; conditions: A549, 72 h
[2] = tested on: NCI-H2228; test: Antiproliferative activity against human NCI-H2228 cells measured after 72 hrs by MTT assay; type: functional, cell-based; conditions: NCI-H2228, 72 h
[3] = tested on: MDA-MB-231; test: Antiproliferative activity against human MDA-MB-231 cells measured after 72 hrs by MTT assay; type: functional, cell-based; conditions: MDA-MB-231, 72 h
[4] = tested on: MCF7; test: Antiproliferative activity against human MCF7 cells measured after 72 hrs by MTT assay; type: functional, cell-based; conditions: MCF7, 72 h
[5] = target: Autotaxin (Homo sapiens, UniProt Q13822); test: Inhibition of human C-terminal His6-tagged ATX beta expressed in Sf9 insect cells using FS-3 as substrate preincubated for 45 mins followed by substrate addition and measured at 1 min interval for 30 mins by fluorescence assay

| Compound | IC50 [1] [µM] | IC50 [2] [µM] | IC50 [3] [µM] | IC50 [4] [µM] | IC50 [5] [µM] |
| --- | --- | --- | --- | --- | --- |
| O=C(CCN1CCN(C(=O)OCc2cc(Cl)cc(Cl)c2)CC1)c1ccc2[nH]c(=O)oc2c1 | 8.21 | 11.3 | 4.17 | 2.31 | – |
| CCn1cc(/C(=N/Nc2nc(-c3ccc(OC)cc3)c(C#N)s2)C(F)(F)F)c2cc(-c3nc(CN4CCOCC4)cs3)ccc21 | > 15 | – | 5.12 | – | 2.06 |
| CCn1cc(/C(=N/Nc2nc(-c3ccc(F)cc3)c(C#N)s2)C(F)(F)F)c2cc(-c3nc(CN4CCC(O)CC4)cs3)ccc21 | 10.3 | – | – | 5.13 | 2.05 |
| CCN1CCN(Cc2csc(-c3ccc4c(c3)c(/C(=N/Nc3nc(-c5ccc(Cl)cc5)c(C#N)s3)C(F)(F)F)cn4CC)n2)CC1 | 13.8 | > 15 | 3.21 | 5.73 | 2.13 |
| CCn1cc(/C(=N/Nc2nc(-c3ccc(OC)cc3)c(C#N)s2)C(F)(F)F)c2cc(-c3nc(CN4CCC(C)CC4)cs3)ccc21 | 9.81 | – | – | 2.23 | > 10 |
| CCn1cc(/C(=N/Nc2nc3ccccc3s2)C(F)(F)F)c2cc(-c3nc(CN4CCCC4)cs3)ccc21 | 8.01 | 6.31 | – | 1.79 | 0.126 |
| CCN1CCN(Cc2csc(-c3ccc4c(c3)c(/C(=N/Nc3nc(-c5ccc(F)cc5)c(C#N)s3)C(F)(F)F)cn4CC)n2)CC1 | > 15 | – | 2.69 | 4.33 | 1.54 |
| CCn1cc(/C(=N/Nc2nc(-c3ccc(F)cc3)c(C#N)s2)C(F)(F)F)c2cc(-c3nc(CN4CCN(CCO)CC4)cs3)ccc21 | 7.31 | > 15 | – | 3.25 | 0.78 |
| CCn1cc(/C(=N/Nc2nc(-c3ccc(OC)cc3)c(C#N)s2)C(F)(F)F)c2cc(-c3nc(CN4CCC(O)CC4)cs3)ccc21 | – | > 15 | 3.98 | 1.37 | 0.56 |
| CCn1cc(/C(=N/Nc2nc(-c3ccc(Cl)cc3)c(C#N)s2)C(F)(F)F)c2cc(-c3nc(CN4CCC(O)CC4)cs3)ccc21 | > 15 | – | 2.33 | – | 1.43 |
| CCn1cc(/C(=N/Nc2nc(-c3ccc(F)cc3)c(C#N)s2)C(F)(F)F)c2cc(-c3nc(CN4CCC[C@H]4CO)cs3)ccc21 | – | – | – | – | 5.27 |
| Cc1[nH]c2cc(F)c(N3CCC(C(=O)N4CCOCC4)CC3)cc2c1/C=N/Nc1nc(-c2ccc(F)cc2)c(C#N)s1 | – | > 15 | 3.67 | 1.67 | 0.104 |
| CCN1CCN(Cc2csc(-c3ccc4c(c3)c(/C(=N/Nc3nc(-c5ccc(OC)cc5)c(C#N)s3)C(F)(F)F)cn4CC)n2)CC1 | > 15 | – | – | 4.67 | 0.93 |
| CCn1cc(/C(=N/Nc2nc(-c3ccc(OC)cc3)c(C#N)s2)C(F)(F)F)c2cc(-c3nc(CN4CCC[C@H]4C(=O)O)cs3)ccc21 | > 15 | – | 1.23 | 1.51 | 0.98 |
| CCn1cc(/C(=N/Nc2nc3ccccc3s2)C(F)(F)F)c2cc(-c3nc(CN4CCC(O)CC4)cs3)ccc21 | 11 | 7.18 | 0.31 | 0.43 | 0.0021 |
| CCn1cc(/C(=N/Nc2nc(-c3ccc(Cl)cc3)c(C#N)s2)C(F)(F)F)c2cc(-c3nc(CN4CCC[C@H]4CO)cs3)ccc21 | – | > 15 | 1.21 | – | 1.41 |
| CCn1cc(/C(=N/Nc2nc3ccccc3s2)C(F)(F)F)c2cc(-c3nc(CN4CCOCC4)cs3)ccc21 | 9.37 | – | 7.3 | 2.73 | 0.201 |
| CCn1cc(/C(=N/Nc2nc(-c3ccc(Cl)cc3)c(C#N)s2)C(F)(F)F)c2cc(-c3nc(CN4CCCC4)cs3)ccc21 | > 15 | – | 1.56 | 5.03 | 2.45 |
| CCn1cc(/C(=N/Nc2nc3ccccc3s2)C(F)(F)F)c2cc(-c3nc(CN4CCC[C@H]4C(=O)O)cs3)ccc21 | > 15 | – | 3.49 | 1.92 | 0.072 |
| CCN1CCN(C(=O)C2CCN(c3cc4c(/C=N/Nc5nc(-c6ccc(F)cc6)c(C#N)s5)c(C)[nH]c4cc3F)CC2)CC1 | > 15 | – | 1.14 | – | 0.159 |
| CCn1cc(/C(=N/Nc2nc(-c3ccc(OC)cc3)c(C#N)s2)C(F)(F)F)c2cc(-c3nc(CN4CCN(C)CC4)cs3)ccc21 | 4.93 | 2.6 | 8.21 | 2.79 | 1.85 |
| CCn1cc(/C(=N/Nc2nc(-c3ccc(F)cc3)c(C#N)s2)C(F)(F)F)c2cc(-c3nc(CN4CCOCC4)cs3)ccc21 | > 15 | > 15 | 4.97 | 2.31 | 2.37 |

| Compound | IC50 [1] [µM] | IC50 [2] [µM] | IC50 [3] [µM] | IC50 [4] [µM] | IC50 [5] [µM] |
| --- | --- | --- | --- | --- | --- |
| CCn1cc(/C(=N/Nc2nc(-c3ccc(F)cc3)c(C#N)s2)C(F)(F)F)c2cc(-c3nc(CN4CC(O)C4)cs3)ccc21 | 6.92 | – | – | 1.79 | 1.25 |
| CCn1cc(/C(=N/Nc2nc(-c3ccc(F)cc3)c(C#N)s2)C(F)(F)F)c2cc(-c3nc(CN4CCN(C)CC4)cs3)ccc21 | 11.7 | – | – | 2.1 | 3.02 |
| CCn1cc(/C(=N/Nc2nc(-c3ccc(OC)cc3)c(C#N)s2)C(F)(F)F)c2cc(-c3nc(CN4CCC[C@H]4CO)cs3)ccc21 | 10.9 | – | – | 4.26 | 0.87 |
| CCn1cc(/C(=N/Nc2nc(-c3ccc(F)cc3)c(C#N)s2)C(F)(F)F)c2cc(-c3nc(CN4CCCCC4)cs3)ccc21 | > 15 | 5.71 | 5.46 | 1.57 | 3.43 |
| COc1ccc(-c2nc(N/N=C(/c3c(C)[nH]c4cc(F)c(N5CCN(CCN(C)C)CC5)cc34)C(F)(F)F)sc2C#N)cc1 | > 15 | 11.5 | 1.23 | 2.91 | 0.167 |
| CCn1cc(/C(=N/Nc2nc3ccccc3s2)C(F)(F)F)c2cc(-c3nc(CN4CCC(C)CC4)cs3)ccc21 | – | > 15 | 2.08 | – | 0.337 |
| Cc1[nH]c2cc(F)c(N3CCC(C(=O)N4CCCC4)CC3)cc2c1/C(=N/Nc1nc(-c2ccc(F)cc2)c(C#N)s1)C(F)(F)F | 9.07 | > 15 | – | 0.75 | 0.057 |
| Cn1cc(/C(=N/Nc2nc(-c3ccc(Cl)cc3)c(C#N)s2)C(F)(F)F)c2cc(-c3nc(CN4CCOCC4)cs3)ccc21 | 9.41 | > 15 | 2.72 | 3.25 | 2.97 |
| CCn1cc(/C(=N/Nc2nc(-c3ccc(OC)cc3)c(C#N)s2)C(F)(F)F)c2cc(-c3nc(CN4CCCC4)cs3)ccc21 | 13.7 | > 15 | 5.17 | – | 3.05 |
| CCn1cc(/C(=N/Nc2nc(-c3ccc(OC)cc3)c(C#N)s2)C(F)(F)F)c2cc(-c3nc(CN4CC(O)C4)cs3)ccc21 | > 15 | > 15 | 2.43 | > 15 | 0.91 |
| Cn1cc(/C(=N/Nc2nc(-c3ccc(F)cc3)c(C#N)s2)C(F)(F)F)c2cc(-c3nc(CN4CCC(O)CC4)cs3)ccc21 | 9.21 | 9.65 | 4.51 | 4.83 | 1.72 |
| CCn1cc(/C(=N/Nc2nc(-c3ccc(Cl)cc3)c(C#N)s2)C(F)(F)F)c2cc(-c3nc(CN4CCCCC4)cs3)ccc21 | – | – | – | – | 6.07 |
| CCn1cc(/C(=N/Nc2nc(-c3ccc(F)cc3)c(C#N)s2)C(F)(F)F)c2cc(-c3nc(CN4CCC[C@H]4C(=O)O)cs3)ccc21 | > 15 | > 15 | 1.27 | 0.65 | 0.61 |
| Cc1[nH]c2cc(F)c(N3CCN(CCN(C)C)CC3)cc2c1/C(=N/Nc1nc(-c2ccc(F)cc2)c(C#N)s1)C(F)(F)F | 13.4 | > 15 | 0.79 | 1.01 | 0.019 |
| CCn1cc(/C(=N/Nc2nc(-c3ccc(Cl)cc3)c(C#N)s2)C(F)(F)F)c2cc(-c3nc(CN4CCN(C)CC4)cs3)ccc21 | – | > 15 | 1.56 | – | 1.21 |
| CCn1cc(/C(=N/Nc2nc(-c3ccc(Cl)cc3)c(C#N)s2)C(F)(F)F)c2cc(-c3nc(CN4CC(O)C4)cs3)ccc21 | – | > 15 | 3.41 | > 15 | 2.46 |
| CCn1cc(/C(=N/Nc2nc(-c3ccc(Cl)cc3)c(C#N)s2)C(F)(F)F)c2cc(-c3nc(CN4CCC(C)CC4)cs3)ccc21 | – | – | – | – | 4.21 |
| CCn1cc(/C(=N/Nc2nc3ccccc3s2)C(F)(F)F)c2cc(-c3nc(CN4CCCCC4)cs3)ccc21 | > 15 | 7.93 | – | 3.12 | 0.107 |
| CCn1cc(/C(=N/Nc2nc3ccccc3s2)C(F)(F)F)c2cc(-c3nc(CN4CCN(C)CC4)cs3)ccc21 | 7.43 | 8.51 | 1.45 | 2.78 | 0.116 |
| CCn1cc(/C(=N/Nc2nc(-c3ccc(F)cc3)c(C#N)s2)C(F)(F)F)c2cc(-c3nc(CN4CCCC4)cs3)ccc21 | > 15 | 6.31 | 2.37 | 2.85 | 1.31 |
| CCc1nc2c(C)cc(N3CCN(CC(=O)N4CC(O)C4)CC3)cn2c1N(C)c1nc(-c2ccc(F)cc2)c(C#N)s1 [ZIRITAXESTAT] | > 15 | > 15 | 6.27 | 8.32 | – |
